The target in experiment [1] is T1, HaPOR2 (Helianthus annuus, UniProt A0A251TWA4).
T1 construct: gene PORA; transit peptide removed; pET15b
T1 sequence (A0A251TWA4 53-387): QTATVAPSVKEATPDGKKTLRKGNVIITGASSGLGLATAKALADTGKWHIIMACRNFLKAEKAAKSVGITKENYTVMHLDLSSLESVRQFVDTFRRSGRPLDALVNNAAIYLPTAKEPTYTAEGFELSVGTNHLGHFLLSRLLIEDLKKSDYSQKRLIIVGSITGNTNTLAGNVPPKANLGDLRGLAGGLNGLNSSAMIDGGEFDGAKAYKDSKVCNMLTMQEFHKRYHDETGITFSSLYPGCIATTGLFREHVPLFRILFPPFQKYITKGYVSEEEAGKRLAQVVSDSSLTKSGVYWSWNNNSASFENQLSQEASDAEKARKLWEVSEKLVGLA
Kind of experiment: […] K Pchlide fluorescence in darkness, F648/F635 ratio vs NADPH, hyperbolic fit. Conditions: lipid-free; 5 μM Pchlide, 15 μM LPOR, pH 7.1, room-temperature dark incubation; apparent parameter, exact value in supplement; read-out: KM^D. The format is binding.

Experiment [2] addresses T2, SlPOR1 (Solanum lycopersicum, UniProt A0A3Q7HEX8).
T2 construct: gene POR2; transit peptide removed; pET15b
T2 sequence (A0A3Q7HEX8 65-399): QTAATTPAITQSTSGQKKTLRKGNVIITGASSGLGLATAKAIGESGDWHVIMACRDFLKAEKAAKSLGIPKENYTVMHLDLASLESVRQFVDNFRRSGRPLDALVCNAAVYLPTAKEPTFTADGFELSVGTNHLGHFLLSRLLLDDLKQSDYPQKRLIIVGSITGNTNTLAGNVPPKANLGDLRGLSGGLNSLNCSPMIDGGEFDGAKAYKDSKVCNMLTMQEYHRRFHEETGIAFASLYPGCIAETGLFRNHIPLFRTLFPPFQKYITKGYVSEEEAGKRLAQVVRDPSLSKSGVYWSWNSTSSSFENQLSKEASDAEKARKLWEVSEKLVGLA
Particulars: 5 uM Pchlide, 15 uM LPOR, binder. On the procedure: (§1) (Figs. 3A, S2). […] The resulting plots resembled saturation curves, to which a hyperbolic function similar to the Michaelis–Menten equation could be fitted (Figs. 3B, S3, Materials and Methods). […] However, KM^L values were consistently lower than KM^D values. […] The addition of 400 μM OPT lipids lowered the KM^D constant for all isoforms, except for SlPOR1, SlPOR3, HaPOR1, HaPOR2, and PeaPOR, where the constant remained unchanged within error estimates. […] Shaded areas represent the SD between replicates. […] A fit of a modified Michaelis–Menten equation is shown, along with the graphical representation of KM^D (B) or KM^L (C). Spectra corresponding to the given F648/F635 values (B) or F Chlide/F Pchlide values (C) are shown on the right side of the plot. D, relationship between KM^D and KM^L for investigated isoforms. The overall distribution of data points is shown in gray. Error bars represent the uncertainty associated with the fitted constant KM^x. Closed symbols represent constants determined for samples not supplemented with lipids, while open symbols these determined in the presence of 400 μM OPT lipids. LPOR, light-dependent protochlorophyllide oxidoreductase; Pchlide, protochlorophyllide; Chlide, chlorophyllide.

The target of experiment [3] is T3, SlPOR3 (Solanum lycopersicum, UniProt A0A3Q7J565).
T3 construct: gene LOC101248079; transit peptide removed; pET15b
T3 sequence (A0A3Q7J565 63-397): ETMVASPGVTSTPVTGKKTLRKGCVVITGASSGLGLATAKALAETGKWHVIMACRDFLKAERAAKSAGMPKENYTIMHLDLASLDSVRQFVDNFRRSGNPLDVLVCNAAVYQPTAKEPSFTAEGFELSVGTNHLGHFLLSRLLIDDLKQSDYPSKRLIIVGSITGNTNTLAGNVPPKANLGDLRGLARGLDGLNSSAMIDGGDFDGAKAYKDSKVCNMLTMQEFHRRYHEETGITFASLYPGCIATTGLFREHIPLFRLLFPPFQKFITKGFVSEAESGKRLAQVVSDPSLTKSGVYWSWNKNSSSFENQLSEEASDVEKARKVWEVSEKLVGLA
Conditions: 5 uM Pchlide, 15 uM LPOR, binder. On the procedure:
as §1

Experiment [4] has as its target T3, SlPOR3. In words: […] K Pchlide fluorescence in darkness, F648/F635 ratio vs NADPH, hyperbolic fit. The format is binding. Conditions: lipid-free; 5 μM Pchlide, 15 μM LPOR, pH 7.1, room-temperature dark incubation; apparent parameter, exact value in supplement; read-out: KM^D.
The target of experiment [5] is T4, AtPORB (Arabidopsis thaliana, UniProt P21218).
T4 construct: gene PORB
T4 sequence (P21218 67-401): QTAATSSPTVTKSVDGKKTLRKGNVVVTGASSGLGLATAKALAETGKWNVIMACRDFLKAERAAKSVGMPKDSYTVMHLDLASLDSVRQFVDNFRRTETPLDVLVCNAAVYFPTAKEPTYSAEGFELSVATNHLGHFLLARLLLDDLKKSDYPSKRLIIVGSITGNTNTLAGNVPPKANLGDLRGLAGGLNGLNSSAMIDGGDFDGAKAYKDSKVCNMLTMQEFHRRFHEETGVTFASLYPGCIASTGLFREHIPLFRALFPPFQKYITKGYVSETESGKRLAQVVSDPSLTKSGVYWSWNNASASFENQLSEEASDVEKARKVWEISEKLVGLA
The experiment is described as above. It counts as binding. Conditions: lipid-free; 5 μM Pchlide, 15 μM LPOR, pH 7.1, room-temperature dark incubation; apparent parameter, exact value in supplement; read-out: KM^D.

For experiment [6], the target named is T5, AtPORA (Arabidopsis thaliana, UniProt Q42536).
T5 construct: gene PORA
T5 sequence (Q42536 70-405): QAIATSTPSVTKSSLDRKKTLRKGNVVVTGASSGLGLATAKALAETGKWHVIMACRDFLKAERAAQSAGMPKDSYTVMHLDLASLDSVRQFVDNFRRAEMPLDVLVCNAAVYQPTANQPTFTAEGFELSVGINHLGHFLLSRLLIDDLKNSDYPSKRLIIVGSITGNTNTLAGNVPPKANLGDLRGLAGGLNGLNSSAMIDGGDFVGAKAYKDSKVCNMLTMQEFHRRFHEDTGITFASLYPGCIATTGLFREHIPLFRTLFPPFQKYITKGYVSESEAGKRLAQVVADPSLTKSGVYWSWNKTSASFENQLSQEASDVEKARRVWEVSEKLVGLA
Described as above. The format is binding. Particulars: lipid-free; 5 μM Pchlide, 15 μM LPOR, pH 7.1, room-temperature dark incubation; apparent parameter, exact value in supplement; read-out: KM^D.

Experimental findings from paper PMC11930087, “Mobility of four structural regions drives isoform-specific properties of photoenzyme LPOR in plants” (The Journal of Biological Chemistry, 2025) are described below.

Where two headings read alike, the source gives them in different places.

On to `NC(=O)C1=CN([C@@H]2O[C@H](COP(=O)(O)OP(=O)(O)OC[C@H]3O[C@@H](n4cnc5c(N)ncnc54)[C@H](OP(=O)(O)O)[C@@H]3O)[C@@H](O)[C@H]2O)C=CC1` [NADPH], for which the Kd is under 10 µM in experiment [1], under 10 µM in experiment [4], over 100 µM in experiment [5] and over 100 µM in experiment [6]. The values for the apparent Michaelis constant in the dark (KM^D) in experiment [2] (400 uM OPT lipids) and in experiment [2] (no lipids) were 7.2 µM and 8.6 µM, respectively. Moreover, in experiment [3] (400 uM OPT lipids), the apparent Michaelis constant in dark (KM^D) is 3 µM. Moreover, the apparent KM (dark, KM^D) in experiment [3] (no lipids) turned out to be 4.9 µM.
